Assay results as given in patent US20250129092A1, “COMPOUNDS USEFUL IN MODULATION OF AHR SIGNALLING” (JAGUAHR THERAPEUTICS PTE LTD, priority 2021, published 2025).

Experiments:
AhR [1] = target: T1, AhR (Homo sapiens, UniProt P35869); assay: AhR antagonism in U937 cells (Promega P450-Glo assay); assay type: cell-based; design: endogenous in cells; host or cells: U937 cells; settings: CYP1A1 activity readout (Luciferin-CEE), head names VAF347, average, read-out: U937 Antagonist pIC50-VAF347: av. pIC50 (converted)
T1 sequence (P35869 11-848): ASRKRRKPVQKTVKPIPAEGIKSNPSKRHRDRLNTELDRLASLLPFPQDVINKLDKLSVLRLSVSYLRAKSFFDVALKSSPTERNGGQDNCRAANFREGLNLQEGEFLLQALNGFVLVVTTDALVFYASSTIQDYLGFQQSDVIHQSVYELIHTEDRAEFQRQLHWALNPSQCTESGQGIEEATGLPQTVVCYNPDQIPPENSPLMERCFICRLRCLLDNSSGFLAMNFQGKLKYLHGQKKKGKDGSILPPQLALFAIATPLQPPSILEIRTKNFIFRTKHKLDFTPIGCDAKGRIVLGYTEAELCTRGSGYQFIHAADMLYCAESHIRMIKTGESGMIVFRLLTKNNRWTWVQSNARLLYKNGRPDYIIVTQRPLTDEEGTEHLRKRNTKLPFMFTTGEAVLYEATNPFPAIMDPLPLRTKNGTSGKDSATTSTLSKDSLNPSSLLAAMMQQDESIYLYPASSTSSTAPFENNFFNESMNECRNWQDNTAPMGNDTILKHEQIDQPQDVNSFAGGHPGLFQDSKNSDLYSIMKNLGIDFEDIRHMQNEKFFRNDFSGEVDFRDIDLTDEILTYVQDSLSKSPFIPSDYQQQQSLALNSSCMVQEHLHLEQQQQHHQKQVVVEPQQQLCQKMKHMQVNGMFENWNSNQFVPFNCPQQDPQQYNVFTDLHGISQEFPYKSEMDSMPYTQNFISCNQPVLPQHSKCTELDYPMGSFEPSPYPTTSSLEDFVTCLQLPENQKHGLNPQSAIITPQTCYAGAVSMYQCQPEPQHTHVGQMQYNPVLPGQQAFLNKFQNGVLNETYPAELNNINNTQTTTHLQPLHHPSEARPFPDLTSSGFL
Protocol: In Vitro Assay 1: AhR Antagonism in U937 Cells (Promega P450-Glo™ Assay)
AhR antagonism was assessed in LJ937 cells (myeloid lineage cell line derived from a human histiocytic lymphoma). Ligand binds the AhR in the cytoplasm, and the AhR-ligand complex translocates to the nucleus and forms a heterodimer with AhR nuclear translocator (Arnt). This complex binds the xenobiotic response element (XRE) in the 5′ upstream region of the CYP1A1 promoter, enhancing CYP1A1 expression. CYP1A1 activity is subsequently determined by assessing the conversion of Luciferin-CEE to luciferin, which in turn reacts with luciferase to produce light. The amount of light produced is directly proportional to cytochrome P450 activity. U937 cells in Ultraculture serum free media (Lonza) were plated at 100,000 cells per well in a round bottom 96 well tissue culture plate. […] The plates were then placed in an incubator at 37° C., ≥85% humidity, 5% CO2 for 24 hrs. After aspiration of the supernatant the CYP1A1 substrate Luciferin-CEE ([Final] 83 μM) was added and incubated for 3 hrs before the reaction was stopped by adding luciferin detection reagent and luminescence was read after 20 minutes.

AhR [2] = target: T1, AhR; assay: AhR antagonism in human PBMCs - inhibition of IL-22 release; assay type: cell-based; design: endogenous in cells; settings: human PBMCs activated with CD3/CD28 agonist mixture, 72 hrs, IL-22 ELISA; average; read-out: hPBMC Inhibition of CD3/CD28 induced IL-22 release: av. pIC50 (converted)
Excerpt: In Vitro Assay 3: AhR Antagonism in Human Peripheral Blood Mononuclear Cells (PBMCs)-Inhibition of Interleukin-22 (IL-22) Release.
PBMCs were isolated from human peripheral blood using Lymphoprep™ and diluted to 1×10^6 cells per ml in RPMI media containing […] foetal bovine serum, 1% penicillin-streptomycin and 1% non essential amino acids. PBMCs were subsequently activated with 1p1 per 100,000 cells of a CD3/CD28 agonist mixture (human T Cell TransAct™ (Miltenyi Biotec)) and then plated at 100,000 cells per well in a round bottom 96 well tissue culture plate. One hour after stimulation seven concentrations of each test compound or vehicle (final [DMSO] 0.2%) were added. The plates were then placed in an incubator at 37° C., ≥85% humidity, 5% […] for 72 hrs before the media was removed and stored at −20° C. until cytokine analysis. IL-22 was measured using human IL-22 DuoSet ELISA (R&D systems) according to the manufacturer's instructions.

IC50 (AhR [1]) [nM] | IC50 (AhR [2]) [nM] | SMILES
> 1000 | 1070 | Cc1ncc(-c2nc(N[C@@H]3CCc4[nH]c5ccccc5c4C3)c3c(n2)N(CCN(C)C)[C@H](CO)CO3)s1 [Example 36, [(7R)-8-[2-(dimethylamino)ethyl]-2-(2-methylthiazol-5-yl)-4-[[(3R)-2,3,4,9-tetrahydro-1H-carbazol-3-yl]amino]-6,7-dihydropyrimido[5,4-b][1,4]oxazin-7-yl]methanol]
1.58 | 0.646 | O=c1[nH]cc(F)cc1-c1nc2c(c(NCCc3c[nH]c4cc(F)ccc34)n1)OCCN2 [Example 70, 5-fluoro-3-(4-((2-(6-fluoro-1H-indol-3-yl)ethyl)amino)-7,8-dihydro-6H-pyrimido[5,4-b][1,4]oxazin-2-yl)pyridin-2 (1H)-one]
4.27 | 7.41 | Cc1ncc(-c2nc(NCCc3c[nH]c4ccccc34)c3c(n2)N[C@H](CO)CO3)s1 [Example 60, [(7R)-4-[2-(1H-indol-3-yl)ethylamino]-2-(2-methylthiazol-5-yl)-7,8-dihydro-6H-pyrimido[5,4-b][1,4]oxazin-7-yl]methanol]
74.1 | 100 | Cc1ncc(-c2nc3c(c(NC4Cc5cccc6[nH]cc(c56)C4)n2)OCCN3)s1 (stereo not drawn) [Example 14, 2-(2-methylthiazol-5-yl)-N-(1,3,4,5-tetrahydrobenzo[cd]indol-4-yl)-7,8-dihydro-6H-pyrimido[5,4-b][1,4]oxazin-4-amine]
4.37 | 1.62 | COC[C@@H]1COc2c(nc(-c3ccc[nH]c3=O)nc2OCCc2c[nH]c3ccccc23)N1 [Example 48, 3-[(7R)-4-[2-(1H-indol-3-yl)ethoxy]-7-(methoxymethyl)-7,8-dihydro-6H-pyrimido[5,4-b][1,4]oxazin-2-yl]-1H-pyridin-2-one]
229 | 501 | Cc1ncc(-c2nc3c(c(N[C@@H]4CCc5[nH]c6ccccc6c5C4)n2)OC[C@@H](CO)N3)s1 [Example 54, [(7R)-2-(2-methylthiazol-5-yl)-4-[[(3R)-2,3,4,9-tetrahydro-1H-carbazol-3-yl]amino]-7,8-dihydro-6H-pyrimido[5,4-b][1,4]oxazin-7-yl]methanol]
89.1 | 141 | CCc1nc(C)c(-c2nc3c(c(NCCc4c[nH]c5ccccc45)n2)OCCN3)s1 [Example 12, 2-(2-ethyl-4-methyl-thiazol-5-yl)-N-[2-(1H-indol-3-yl)ethyl]-7,8-dihydro-6H-pyrimido[5,4-b][1,4]oxazin-4-amine]
3.8 | 3.24 | COC[C@@H]1COc2c(NCCc3c[nH]c4ccccc34)nc(-c3cnc(C)s3)nc2N1 [Example 59, (7R)—N-[2-(1H-indol-3-yl)ethyl]-7-(methoxymethyl)-2-(2-methylthiazol-5-yl)-7,8-dihydro-6H-pyrimido[5,4-b][1,4]oxazin-4-amine]
91.2 | 43.7 | Cc1ccc(-c2nc3c(c(NCCc4c[nH]c5cc(F)ccc45)n2)OCCN3)cn1 [Example 20, N-[2-(6-fluoro-1H-indol-3-yl)ethyl]-2-(6-methyl-3-pyridyl)-7,8-dihydro-6H-pyrimido[5,4-b][1,4]oxazin-4-amine]
126 | 69.2 | O=c1[nH]cc(F)cc1-c1nc2c(c(N[C@@H]3CCc4[nH]c5ccccc5c4C3)n1)OCCN2 [Example 71, (R)-5-fluoro-3-(4-((2,3,4,9-tetrahydro-1H-carbazol-3-yl)amino)-7,8-dihydro-6H-pyrimido[5,4-b][1,4]oxazin-2-yl)pyridin-2(1H)-one]
7.76 | 1.35 | CC(C)N1CCOc2c(NCCc3c[nH]c4ccccc34)nc(-c3cncc(F)c3)nc21 [Example 6, 2-(5-fluoro-3-pyridyl)-N-[2-(1H-indol-3-yl)ethyl]-8-isopropyl-6,7-dihydropyrimido[5,4-b][1,4]oxazin-4-amine]
50.1 | 132 | Cc1ncc(-c2nc3c(c(N[C@H]4Cc5cccc6[nH]cc(c56)C4)n2)OCCN3)s1 (single isomer, unassigned) [Example 62]
91.2 | 525 | Cc1ncc(-c2nc3c(c(N(CCO)CCc4c[nH]c5ccccc45)n2)OCCN3)s1 [Example 11, 2-[2-(1H-indol-3-yl)ethyl-[2-(2-methylthiazol-5-yl)-7,8-dihydro-6H-pyrimido[5,4-b][1,4]oxazin-4-yl]amino]ethanol]
51.3 | 24.5 | Cn1cccc(-c2nc3c(c(NCCc4c[nH]c5ccccc45)n2)OCCN3)c1=O [Example 19, 3-[4-[2-(1H-indol-3-yl)ethylamino]-7,8-dihydro-6H-pyrimido[5,4-b][1,4]oxazin-2-yl]-1-methyl-pyridin-2-one]
10.2 | < 1.55 | CN1CCOc2c(NCCc3c[nH]c4ccccc34)nc(-c3ccc[nH]c3=O)nc21 [Example 44, 3-(4-((2-(1H-indol-3-yl)ethyl)amino)-8-methyl-7,8-dihydro-6H-pyrimido[5,4-b][1,4]oxazin-2-yl)pyridin-2 (1H)-one]
0.759 | < 1.35 | COC[C@@H]1COc2c(NCCc3c[nH]c4ccccc34)nc(-c3cncc(F)c3)nc2N1 [Example 46, (7R)-2-(5-fluoro-3-pyridyl)-N-[2-(1H-indol-3-yl)ethyl]-7-(methoxymethyl)-7,8-dihydro-6H-pyrimido[5,4-b][1,4]oxazin-4-amine]
0.513 | 0.617 | COC[C@H]1COc2c(NCCc3c[nH]c4ccccc34)nc(-c3cncc(F)c3)nc2N1 [Example 28, (7S)-2-(5-fluoro-3-pyridyl)-N-[2-(1H-indol-3-yl)ethyl]-7-(methoxymethyl)-7,8-dihydro-6H-pyrimido[5,4-b][1,4]oxazin-4-amine]
5.5 | 3.98 | C[C@@H]1CNc2nc(-c3cncc(F)c3)nc(NCCc3c[nH]c4ccccc34)c2O1 [Example 30, (6R)-2-(5-fluoro-3-pyridyl)-N-[2-(1H-indol-3-yl)ethyl]-6-methyl-7,8-dihydro-6H-pyrimido[5,4-b][1,4]oxazin-4-amine]
> 759 | > 2000 | Cc1ncc(-c2nc3c(c(NC4CCc5[nH]c6cccnc6c5C4)n2)OCCN3)s1 (stereo not drawn) [Example 34, 2-(2-methylthiazol-5-yl)-N-(6,7,8,9-tetrahydro-5H-pyrido[3,2-b]indol-8-yl)-7,8-dihydro-6H-pyrimido[5,4-b][1,4]oxazin-4-amine]
251 | 123 | Cc1ncc(-c2nc(N[C@@H]3CCc4[nH]c5ccccc5c4C3)c3c(n2)N(CCO)CCO3)s1 [Example 37, 2-[2-(2-methylthiazol-5-yl)-4-[[(3R)-2,3,4,9-tetrahydro-1H-carbazol-3-yl]amino]-6,7-dihydropyrimido[5,4-b][1,4]oxazin-8-yl]ethanol]
3.8 | < 1.02 | COC[C@H]1COc2c(NCCc3c[nH]c4ccccc34)nc(-c3ccc[nH]c3=O)nc2N1 [Example 45, (S)-3-(4-((2-(1H-indol-3-yl)ethyl)amino)-7-(methoxymethyl)-7,8-dihydro-6H-pyrimido[5,4-b][1,4]oxazin-2-yl)pyridin-2(1H)-one]
